In publication PMC11217295, “The immune response to RNA suppresses nucleic acid synthesis by limiting ribose 5-phosphate” (The EMBO Journal, 2024):

Target: Ribose 5-Phosphate Isomerase A (RPIA) (Homo sapiens, UniProt P49247)
Assay: continuous spectrophotometric isomerase assay with recombinant RPIA
Type: biochemical
Parameters: recombinant Streptavidin-tagged human RPIA expressed in E. coli
Excerpt: continuous spectrophotometric isomerase assay with recombinant RPIA on Ribose 5-Phosphate Isomerase A (RPIA) | validated its activity against the human isomerase in a continuous spectrophotometric assay.

Ribose 5-Phosphate Isomerase A (RPIA), sequence (P49247 whole entry): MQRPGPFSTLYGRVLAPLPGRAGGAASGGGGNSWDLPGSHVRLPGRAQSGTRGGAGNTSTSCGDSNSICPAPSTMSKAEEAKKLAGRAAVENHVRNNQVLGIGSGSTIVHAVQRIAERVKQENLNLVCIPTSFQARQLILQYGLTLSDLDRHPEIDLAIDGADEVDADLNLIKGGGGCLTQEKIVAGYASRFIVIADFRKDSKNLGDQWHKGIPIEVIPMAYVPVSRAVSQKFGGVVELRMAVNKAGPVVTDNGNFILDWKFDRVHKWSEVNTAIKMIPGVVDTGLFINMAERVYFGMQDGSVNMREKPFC

O=C(NO)[C@H](O)[C@H](O)COP(=O)(O)O [JNB-hu20-057-2A]
continuous spectrophotometric isomerase assay with recombinant RPIA: validated its activity against the human isomerase in a continuous spectrophotometric assay. This shows the inhibitor suppresses the activity
